Data published in patent US20230265151A1, “GIP/GLP1 CO-AGONIST COMPOUNDS” (priority 2020, published 2023).
Read-outs that look alike come from different tables or passages of the source. *1 amine or outer side, *2 acyl side, *3 side chain or, on linkers, in order; H or OH if unused. Where a SMILES comes first, the peptide text is derived from it. Side-chain parts run from the residue outwards. [ ]: non-standard residue; d: D form. The star is where a group is joined. αMePhe(2-F) = C[C@](N)(Cc1ccccc1F)C(=O)O; γGlu = O=C(O)[C@H](CCC(=O)[*:2])N[*:1]; C14 diacid = O=C(O)CCCCCCCCCCCCC(=O)*; αMeY = C[C@](N)(Cc1ccc(O)cc1)C(=O)O; αMeL = CC(C)C[C@](C)(N)C(=O)O; Lauroyl = CCCCCCCCCCCC(=O)*; Orn = NCCC[C@H](N)C(=O)O; AEEA = NCCOCCOCC(=O)O; Aib = CC(C)(N)C(=O)O

Experiments:
Type in all cases: cell-based
hGIPR = biological target: T1, hGIPR (Homo sapiens, UniProt P48546); assay: Functional cAMP formation (HTRF) in HEK-293 clonal cells expressing hGIPR, 0.1% bovine casein, without or with 1.0% human serum albumin; conditions: for Emax: read-out: hGIPR Emax, % ± SEM; for EC50: geometric mean, read-out: hGIPR EC50, nM (SEM, n)
T1 construct: expressed in transfected cells
T1 sequence (P48546 22-466): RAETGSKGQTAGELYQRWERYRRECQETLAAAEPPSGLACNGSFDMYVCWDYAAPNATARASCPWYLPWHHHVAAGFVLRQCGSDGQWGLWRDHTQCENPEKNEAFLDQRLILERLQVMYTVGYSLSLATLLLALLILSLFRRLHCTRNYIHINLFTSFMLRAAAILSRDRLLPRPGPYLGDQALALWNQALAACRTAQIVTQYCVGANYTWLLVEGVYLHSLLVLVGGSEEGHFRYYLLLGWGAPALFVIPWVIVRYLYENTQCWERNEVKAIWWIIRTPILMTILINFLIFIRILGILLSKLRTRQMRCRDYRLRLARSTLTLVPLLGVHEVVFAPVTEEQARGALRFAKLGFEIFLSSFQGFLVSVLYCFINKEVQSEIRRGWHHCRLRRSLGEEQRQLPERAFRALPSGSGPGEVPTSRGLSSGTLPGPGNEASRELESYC
Summary of the method: (§1)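 Readings of the HTRF 665/620 nm ratio, which falls as cAMP rises, were converted to nM cAMP using a standard curve after 30 min peptide exposure at 37° C.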

hGCGR = biological target: T2, hGCGR (Homo sapiens, UniProt P47871); assay: Functional cAMP formation (HTRF) in HEK-293 clonal cells expressing hGCGR, 0.1% bovine casein, without or with 1.0% human serum albumin; conditions: read-out: hGCGR EC50, nM (SEM, n)
T2 construct: expressed in transfected cells
T2 sequence (P47871 26-477): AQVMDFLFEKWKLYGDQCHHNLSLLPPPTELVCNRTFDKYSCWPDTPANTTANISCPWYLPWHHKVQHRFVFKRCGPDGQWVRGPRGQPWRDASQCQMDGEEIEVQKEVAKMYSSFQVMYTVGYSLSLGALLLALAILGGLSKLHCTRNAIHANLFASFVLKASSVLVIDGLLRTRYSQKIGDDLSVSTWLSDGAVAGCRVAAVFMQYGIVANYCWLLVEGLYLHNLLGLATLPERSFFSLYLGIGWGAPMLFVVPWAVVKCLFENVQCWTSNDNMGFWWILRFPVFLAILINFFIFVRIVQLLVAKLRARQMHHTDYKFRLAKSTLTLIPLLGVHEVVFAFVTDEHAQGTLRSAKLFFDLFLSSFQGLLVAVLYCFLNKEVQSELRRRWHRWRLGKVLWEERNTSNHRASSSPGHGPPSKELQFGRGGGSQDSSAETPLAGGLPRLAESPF
Summary of the method: as §1

hGLP-1R = hGLP-1R (Homo sapiens, UniProt P43220); assay: Functional cAMP formation (HTRF) in HEK-293 clonal cells expressing hGLP-1R, 0.1% bovine casein, without or with 1.0% human serum albumin; design: expressed in transfected cells; conditions: 37° C.; for Emax: percent of maximal response to GLP-1(7-36)NH2, read-out: hGLP-1R Emax, % ± SEM; for EC50: geometric mean, read-out: hGLP-1R EC50, nM (SEM, n)
Chain of hGLP-1R (P43220 24-463): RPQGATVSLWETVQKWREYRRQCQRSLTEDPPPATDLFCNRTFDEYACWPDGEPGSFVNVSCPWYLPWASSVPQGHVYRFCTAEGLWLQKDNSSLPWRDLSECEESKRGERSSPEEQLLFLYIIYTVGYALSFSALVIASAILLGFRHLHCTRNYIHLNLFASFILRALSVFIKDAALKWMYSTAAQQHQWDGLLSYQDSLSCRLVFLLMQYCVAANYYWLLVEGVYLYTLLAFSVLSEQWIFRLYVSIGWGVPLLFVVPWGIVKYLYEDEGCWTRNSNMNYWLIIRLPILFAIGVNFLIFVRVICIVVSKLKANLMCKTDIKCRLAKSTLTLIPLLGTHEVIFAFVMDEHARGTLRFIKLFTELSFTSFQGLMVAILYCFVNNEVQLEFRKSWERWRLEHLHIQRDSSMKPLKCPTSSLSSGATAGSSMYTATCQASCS
Summary of the method: as §1

[1] = HEK293, cAMP, 37° C., 0.1% bovine casein, percent of maximal response to GIP(1-42)NH2, arithmetic mean
[2] = cAMP, 37° C., 0.1% bovine casein (no human serum albumin)
[3] = cAMP, 37° C., 0.1% bovine casein (no human serum albumin), geometric mean
[4] = HEK293, cAMP, 0.1% bovine casein, arithmetic mean
[5] = cAMP, 0.1% bovine casein (no human serum albumin)
[6] = 0.1% bovine casein and 1.0% human serum albumin, 37° C.
[7] = 0.1% bovine casein and 1.0% human serum albumin, 37° C., geometric mean
[8] = 0.1% bovine casein and 1.0% human serum albumin
[9] = HEK293, 0.1% bovine casein and 1.0% human serum albumin, 37° C., percent of maximal response to GIP(1-42)NH2

Row | Structure (SMILES) | Emax (hGIPR; HEK293, cAMP, 37° C., 0.1% bovine casein and 1.0% human serum albumin, percent of maximal response to GIP(1-42)NH2) | Emax (hGIPR; [1]) | EC50 (hGIPR; [2]) | EC50 (hGCGR; [3]) | EC50 (hGCGR; cAMP, 37° C., 0.1% bovine casein and 1.0% human serum albumin, geometric mean (SEM, n)) | Emax (hGLP-1R; HEK293, cAMP, 0.1% bovine casein and 1.0% human serum albumin) | Emax (hGLP-1R; [4]) | EC50 (hGLP-1R; [5]) | EC50 (hGIPR; [6]) | EC50 (hGCGR; [7]) | EC50 (hGLP-1R; [8]) | Emax (hGIPR; [9]) | Emax (hGLP-1R; HEK293, 0.1% bovine casein and 1.0% human serum albumin) | Emax (hGIPR; HEK293, percent of maximal response to GIP(1-42)NH2, 37° C., 0.1% bovine casein, arithmetic mean) | EC50 (hGIPR; cAMP, incubated at 37° C., 0.1% bovine casein (no human serum albumin)) | EC50 (hGCGR; cAMP, incubated at 37° C., 0.1% bovine casein (no human serum albumin), geometric mean)
1 | CC[C@H](C)[C@H](NC(=O)[C@H](CCCN)NC(=O)[C@H](CC(=O)O)NC(=O)[C@H](CC(C)C)NC(=O)[C@](C)(CC(C)C)NC(=O)[C@@H](NC(=O)C(C)(C)NC(=O)[C@H](Cc1ccc(O)cc1)NC(=O)[C@H](CC(=O)O)NC(=O)[C@H](CO)NC(=O)[C@@H](NC(=O)[C@](C)(Cc1ccccc1F)NC(=O)[C@@H](NC(=O)CNC(=O)[C@H](CCC(=O)O)NC(=O)C(C)(C)NC(=O)[C@@H](N)Cc1ccc(O)cc1)[C@@H](C)O)[C@@H](C)O)[C@@H](C)CC)C(=O)N[C@@H](C)C(=O)N[C@@H](CCC(N)=O)C(=O)NC(C)(C)C(=O)N[C@@H](CCC(=O)O)C(=O)N[C@@H](Cc1ccccc1)C(=O)N[C@H](C(=O)N[C@@H](CCCCNC(=O)COCCOCCNC(=O)CC[C@H](NC(=O)COCCOCCNC(=O)CCCCCCCCCCCCC(=O)O)C(=O)O)C(=O)N[C@@](C)(Cc1ccc(O)cc1)C(=O)N[C@@H](CC(C)C)C(=O)N[C@H](C(=O)N[C@@H](CCCCNC(=O)COCCOCCNC(=O)CC[C@H](NC(=O)COCCOCCNC(=O)CCCCCCCCCCCCC(=O)O)C(=O)O)C(=O)NCC(=O)NCC(=O)N1CCC[C@H]1C(=O)N[C@@H](CO)C(=O)N[C@@H](CO)C(=O)NCC(=O)N[C@@H](C)C(=O)N1CCC[C@H]1C(=O)N1CCC[C@H]1C(=O)N1CCC[C@H]1C(=O)N[C@@H](CO)C(N)=O)[C@@H](C)CC)[C@@H](C)CC [Example 365] | 93.5% | 105% | 0.00809 nM | > 9950 nM | > 9950 nM | 91% | 98.5% | 0.362 nM | – | – | – | – | – | – | – | –
2 | CCCCCCCCCCCC(=O)N[C@@H](CCC(=O)NCCOCCOCC(=O)NCCOCCOCC(=O)NCCCC[C@H](NC(=O)[C@H](CCCN)NC(=O)[C@H](CC(=O)O)NC(=O)[C@H](CC(C)C)NC(=O)[C@](C)(CC(C)C)NC(=O)[C@@H](NC(=O)[C@H](CO)NC(=O)[C@H](CCCCNC(=O)COCCOCCNC(=O)COCCOCCNC(=O)CC[C@H](NC(=O)CCCCCCCCCCC)C(=O)O)NC(=O)[C@H](CC(=O)O)NC(=O)[C@H](CO)NC(=O)[C@@H](NC(=O)[C@](C)(Cc1ccccc1F)NC(=O)[C@@H](NC(=O)CNC(=O)[C@H](CCC(=O)O)NC(=O)C(C)(C)NC(=O)[C@@H](N)Cc1ccc(O)cc1)[C@@H](C)O)[C@@H](C)O)[C@@H](C)CC)C(=O)N[C@@H](C)C(=O)N[C@@H](CCC(N)=O)C(=O)NC(C)(C)C(=O)N[C@@H](CCC(=O)O)C(=O)N[C@@H](Cc1ccccc1)C(=O)N[C@H](C(=O)N[C@H](CCC(=O)O)C(=O)N[C@@](C)(Cc1ccc(O)cc1)C(=O)N[C@@H](CC(C)C)C(=O)N[C@H](C(=O)N[C@@H](CCC(=O)O)C(=O)NCC(=O)NCC(N)=O)[C@@H](C)CC)[C@@H](C)CC)C(=O)O [Example 294] (H-Y[Aib]EGT[αMePhe(2-F)]TSDK([AEEA-AEEA-γGlu-Lauroyl])SI[αMeL]LD[Orn]K([AEEA-AEEA-γGlu-Lauroyl])AQ[Aib]EFI[dE][αMeY]LIEGG-NH2) | – | 105% | 0.00615 nM | > 9950 nM | – | – | – | 0.0665 nM | 0.833 nM | > 9950 nM | 6.26 nM | – | – | – | – | –
3 | CC[C@H](C)[C@H](NC(=O)[C@H](CC(C)C)NC(=O)[C@](C)(Cc1ccc(O)cc1)NC(=O)[C@@H](CCC(=O)O)NC(=O)[C@@H](NC(=O)[C@H](Cc1ccccc1)NC(=O)[C@H](CCC(=O)O)NC(=O)C(C)(C)NC(=O)[C@H](CCC(N)=O)NC(=O)[C@H](C)NC(=O)[C@H](CCCCNC(=O)COCCOCCNC(=O)COCCOCCNC(=O)CCCCCCCCCCCCC(=O)O)NC(=O)[C@H](CCCN)NC(=O)[C@H](CC(=O)O)NC(=O)[C@H](CC(C)C)NC(=O)[C@](C)(CC(C)C)NC(=O)[C@@H](NC(=O)[C@H](CO)NC(=O)[C@H](Cc1ccc(OC)cc1)NC(=O)[C@H](CC(=O)O)NC(=O)[C@H](CO)NC(=O)[C@@H](NC(=O)[C@](C)(Cc1ccccc1F)NC(=O)[C@@H](NC(=O)CNC(=O)[C@H](CCC(=O)O)NC(=O)C(C)(C)NC(=O)[C@@H](N)Cc1ccc(O)cc1)[C@@H](C)O)[C@@H](C)O)[C@@H](C)CC)[C@@H](C)CC)C(=O)N[C@@H](CCCCNC(=O)COCCOCCNC(=O)COCCOCCNC(=O)CCCCCCCCCCCCC(=O)O)C(=O)NCC(=O)NCC(=O)N1CCC[C@H]1C(=O)N[C@@H](CO)C(=O)N[C@@H](CO)C(=O)NCC(=O)N[C@@H](C)C(=O)N1CCC[C@H]1C(=O)N1CCC[C@H]1C(=O)N1CCC[C@H]1C(=O)N[C@@H](CO)C(N)=O [Example 266] (H-Y[Aib]EGT[αMePhe(2-F)]TSDY(Me)SI[αMeL]LD[Orn]K([AEEA-AEEA-C14 diacid])AQ[Aib]EFI[dE][αMeY]LIK([AEEA-AEEA-C14 diacid])GGPSSGAPPPS-NH2) | – | 93.2% | 0.0136 nM | > 9950 nM | – | – | 90.5% | – | – | > 9950 nM | 5.83 nM | 82.7% | 97.6% | – | – | –
4 | CC[C@H](C)[C@H](NC(=O)[C@H](CC(C)C)NC(=O)[C@](C)(Cc1ccc(O)cc1)NC(=O)[C@@H](CCC(=O)O)NC(=O)[C@@H](NC(=O)[C@H](Cc1ccccc1)NC(=O)[C@H](CCC(=O)O)NC(=O)C(C)(C)NC(=O)[C@H](CCC(N)=O)NC(=O)[C@H](C)NC(=O)[C@H](CCCCNC(=O)CC[C@H](NC(=O)COCCOCCNC(=O)CCCCCCCCCCCCC(=O)O)C(=O)O)NC(=O)[C@H](CCCN)NC(=O)[C@H](CC(=O)O)NC(=O)[C@H](CC(C)C)NC(=O)[C@](C)(CC(C)C)NC(=O)[C@@H](NC(=O)[C@H](CO)NC(=O)[C@H](Cc1ccncc1)NC(=O)[C@H](CC(=O)O)NC(=O)[C@H](CO)NC(=O)[C@@H](NC(=O)[C@](C)(Cc1ccccc1F)NC(=O)[C@@H](NC(=O)CNC(=O)[C@H](CCC(=O)O)NC(=O)C(C)(C)NC(=O)[C@@H](N)Cc1ccc(O)cc1)[C@@H](C)O)[C@@H](C)O)[C@@H](C)CC)[C@@H](C)CC)C(=O)N[C@@H](CCC(=O)O)C(=O)NCC(=O)NCC(=O)N[C@@H](CCCCNC(=O)CC[C@H](NC(=O)COCCOCCNC(=O)CCCCCCCCCCCCC(=O)O)C(=O)O)C(=O)N[C@@H](CO)C(=O)N[C@@H](CO)C(=O)NCC(=O)N[C@@H](C)C(=O)N1CCC[C@H]1C(=O)N1CCC[C@H]1C(=O)N1CCC[C@H]1C(=O)N[C@@H](CO)C(N)=O [Example 42] | – | – | – | – | – | – | – | – | 1 nM | > 9950 nM | 26.7 nM | 91.1 ± 0.67% | – | 97.8 ± 7.18% | 0.0103 nM | > 9950 nM
